Where two headings read alike, the source gives them in different places.
Legend:
[1] = molecular target: Granzyme B (human lymphocytes) (Homo sapiens (Human), UniProt P10144); assay: human Granzyme B biochemical assay; conditions: for IC50: read-out: IC50
Procedure, shortened: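 Fluorogenic Ac-IETD-AFC cleavage (Ex 400/Em 505 nm) read after 60 min at 22 °C, following 30 min, 22 °C enzyme–compound pre-incubation. Working stocks: enzyme 10 nM in 0.1% BSA buffer, substrate 800 µM, compound 8 points, 3.16-fold from 40 µM. Controls set 0% (DMSO) and 100% (standard inhibitor) inhibition; IC50 fitted.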

[2] = metabolic stability assay using liver microsomes; assay type: in vitro ADME; conditions: human liver microsomes, with NRS at 37° C.
Method: In addition, compounds of Formula I-VIII described above are also tested in the metabolic stability assay using liver microsomes, as provided below.
Buffer pH7.4: Prepare 1 (M) KH2PO4 and 1 (M) K2HPO4. Titrate 1(M) K2HPO4 with 1 (M) KH2PO4 to obtain pH 7.40. Dilute this buffer 10 fold in Water (30 ml buffer+270 ml of water) to obtain 100 mM phosphate buffer. Adjust pH to 7.40±0.02 using 5(N) HCl or 5(N) NaOH.
NADPH Regeneration System (NRS): Prepare a solution containing 13 mM NADP, 33 mM Glucose-6-phosphate, 33 mM MgCl2 and 4 U/ml Glucose-6-phosphate dehydrogenase in buffer.
Liver Microsome (LM) suspension: Thaw LM vial on ice, then mix 1.0 ml LM (20 mg/ml) with 19 ml buffer [final LM Conc: 1 mg/ml]
LM+NRS suspension: Mix 5.0 ml NRS with 20 ml LM suspension [final LM Conc: 0.8 mg/ml]
System suitability standard: a synthesized compound having Mol wt 686.2 used as System suitability standard. Dissolve this compound in ice-cold acetonitrile to obtain concentration of 0.1 μg/ml and store at 4° C.
Compound Stock: 10 mM in DMSO
Sub stock (100 μM): 4 μl of 10 mM Compound Stock+[…] Acetonitrile
Working plate (2 μM): 10 μl of 100 μM Sub stock+490 μl buffer
Incubate all plastic materials including tips at 37° C. overnight.
Incubate LM suspension and NRS at 37° C. for 15 min before use.
Add 40 μl buffer to the wells of blank plate.
Add 40 μl compound (from working plate) to 0, 5, 10, 20, 30 and 60 min plates.
Initiate reaction by adding 40 μl of LM+NRS suspension in each plate.
Terminate reaction by adding 240 μl ice-cold acetonitrile containing system suitability standard at designated time points. For T=0 add 240 μl ice-cold acetonitrile containing system suitability standard before LM+NRS addition.
Centrifuge (3500 rpm, 20 min and 15° C.) the plates.
Mix 110 μl supernatant with 110 μl water and quantitate amount of Compound in the solution using LC-MS/MS.
For Scaled CLint & Predicted CL use the relevant physiological parameters, as applicable.
Human LM: Corning, Cat #25117
Mouse LM: Xenotech, Cat #M1000
(2) Volumes mentioned in the protocol are representative values and may change depending on number of test compounds.
(3) It is assumed that the compounds are chemically stable in the assay system/buffer.
The metabolic stability assay described above can be performed using different test concentrations, LM Concentrations, or time points.
Certain compounds of this disclosure were tested in the microsomal stability assay provided above.

[3] = Granzyme B (human lymphocytes) 5 nM, substrate Ac-IETD-AFC 200 μM, Cpd incubation with enzyme 30 mins, 22° C., read time 60 mins
[4] = Granzyme B IC50 as repeated in Table 7

Granzyme B (human lymphocytes), sequence (P10144 21-247): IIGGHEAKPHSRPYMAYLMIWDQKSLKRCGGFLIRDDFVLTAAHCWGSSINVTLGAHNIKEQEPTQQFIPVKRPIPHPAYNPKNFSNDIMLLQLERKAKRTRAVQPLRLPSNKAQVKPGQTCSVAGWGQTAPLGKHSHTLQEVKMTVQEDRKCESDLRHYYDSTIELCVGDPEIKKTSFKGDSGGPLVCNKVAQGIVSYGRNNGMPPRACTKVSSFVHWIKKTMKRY

Row | IC50 [1, 3] [nM] | IC50 [1, 4] [nM] | biological potency of separated isomer (in words) ([1]; isomers separated by prep HPLC or column chromatography) | Structure (SMILES) | HLM % remaining @ 30 min [2]
1 | 1 to 300 | 1 to 300 | – | CC[C@H](C)[C@H](NC(=O)c1ccccc1)C(=O)N[C@H]1COc2cccc3c2N(C1=O)[C@H](C(=O)NCc1c[nH]nn1)C3 [Compound C096, (1S,8S)-8-((2S,3S)-2-Benzoylamino-3-methyl-pentanoylamino)-9-oxo-1,2,8,9-tetrahydro-7H-6-oxa-9a-aza-benzo[cd]azulene-1-carboxylic acid (1H-[1,2,3]triazol-4-ylmethyl)-amide] | ** (“**” indicates a remaining percentage of 31-70%)
2 | 1 to 300 | 1 to 300 | – | CC[C@H](C)[C@H](NC(=O)COCCF)C(=O)N[C@H]1CCc2cccc3c2N(C1=O)[C@H](C(=O)NCc1c[nH]nn1)C3 [Compound C058, (2S,5S)-5-{(2S,3S)-2-[2-(2-Fluoro-ethoxy)-acetylamino]-3-methyl-pentanoylamino}-4-oxo-1,2,4,5,6,7-hexahydro-azepino[3,2,1-hi]indole-2-carboxylic acid (1H-[1,2,3]-triazol-4-ylmethyl)-amide] | *** (the symbol “***” indicates a remaining percentage of 71-100%)
3 | 1 to 300 | 1 to 300 | – | CC(C)[C@H](NC(=O)c1ccccc1)C(=O)N[C@H]1CCc2cccc3c2N(C1=O)[C@H](C(=O)NCc1c[nH]nn1)C3 [Compound C036, (2S,5S)-5-((S)-2-Benzoylamino-3-methyl-butyrylamino)-4-oxo-1,2,4,5,6,7-hexahydro-azepino[3,2,1-hi]indole-2-carboxylic acid (1H-[1,2,3]triazol-4-ylmethyl)-amide] | *** (the symbol “***” indicates a remaining percentage of 71-100%)
4 | 1 to 300 | 1 to 300 | – | CC[C@H](C)[C@H](NC(=O)COCCF)C(=O)N[C@H]1COc2cccc3c2N(C1=O)[C@H](C(=O)NCc1c[nH]nn1)C3 [Compound C099, (1S,8S)-8-{(2S,3S)-2-[2-(2-Fluoro-ethoxy)-acetylamino]-3-methyl-pentanoylamino}-9-oxo-1,2,8,9-tetrahydro-7H-6-oxa-9a-aza-benzo[cd]azulene-1-carboxylic acid (1H-[1,2,3]triazol-4-ylmethyl)-amide] | *** (the symbol “***” indicates a remaining percentage of 71-100%)
5 | 1 to 300 | 1 to 300 | – | CC[C@H](C)[C@H](NC(C)=O)C(=O)N[C@H]1CCc2cccc3c2N(C1=O)[C@H](C(=O)NCc1c[nH]nn1)C3 [Compound C028, (2S,5S)-5-((2S,3S)-2-Acetylamino-3-methyl-pentanoylamino)-4-oxo-1,2,4,5,6,7-hexahydro-azepino[3,2,1-hi]indole-2-carboxylic acid (1H-[1,2,3]triazol-4-ylmethyl)-amide] | *** (the symbol “***” indicates a remaining percentage of 71-100%)
6 | 1 to 300 | 1 to 300 | – | CC[C@H](C)[C@H](NC(=O)c1ccccc1)C(=O)N[C@H]1CCc2cccc3c2N(C1=O)[C@H](C(=O)NCc1c[nH]nn1)C3 [Compound C039, (2S,5S)-5-((2S,3S)-2-Benzoylamino-3-methyl-pentanoylamino)-4-oxo-1,2,4,5,6,7-hexahydro-azepino[3,2,1-hi]indole-2-carboxylic acid (1H-[1,2,3]triazol-4-ylmethyl)-amide] | ** (“**” indicates a remaining percentage of 31-70%)
7 | 1 to 300 | 1 to 300 | biologically potent | CC[C@H](C)[C@H](NC(=O)Cc1csc2ccccc12)C(=O)N[C@H]1CCc2cccc3c2N(C1=O)[C@H](C(=O)NCc1c[nH]nn1)C3 [Compound C006, (2S,5S)-5-[(2S,3S)-2-(2-Benzo[b]thiophen-3-yl-acetylamino)-3-methyl-pentanoylamino]-4-oxo-1,2,4,5,6,7-hexahydro-azepino[3,2,1hi]indole-2-carboxylic acid (1H-[1,2,3]triazol-4-ylmethyl)-amide] | * (“*” indicates a remaining percentage of 0-30%)

From patent publication US11667645B2, “Granzyme B directed imaging and therapy” (CytoSite Biopharma Inc., priority 2018, dated 2023)
